# What was measured:
# [1] = system: P. cynomolgi liver-stage parasites in simian primary hepatocytes; test: In vitro liver-stage development, P. cynomolgi in simian primary hepatocytes; type: cell-based, Plasmodium cynomolgi
# Description: (§1) Primary human hepatocytes were isolated from liver segments obtained from adult patients undergoing partial hepatectomy (Service de Chirurgie Digestive, Hépato-Bilio Pancréatique, Hôpital Pitié Salpêtrière, Paris, France). Primary simian hepatocytes were isolated from liver segments collected from healthy Macaca fascicularis monkeys from CEA, Fontenay aux Roses, France. All hepatocytes were obtained using collagenase perfusion as previously described ([40]). […] Primary murine hepatocytes were isolated from liver segments collected from BALB/c mice. Human and murine hepatocytes were used directly after their isolation. Cells were seeded in 96-well plates (Falcon; Becton Dickinson Labware Europe, France) coated with collagen I (BD Bioscience, USA) at a density of 80,000 cells per well. […] For human hepatocytes, the complete medium was supplemented with 2% dimethyl sulfoxide (DMSO; Sigma-Aldrich, USA) before infection to preserve their differentiation.
# (§2) On the day of infection, 3 · 10^4 sporozoites of P. falciparum, P. yoelii, and P. cynomolgi were added to their respective host cell cultures (human, murine, and simian). The infected culture plates were centrifuged for 10 min at 900 × g, allowing fast parasite sedimentation, and further incubated with serial dilutions of M1. Culture medium containing the appropriate drug concentration was refreshed daily, and cells were fixed at 48 h postinfection (p.i.) for infections with P. yoelii, 6 days p.i. for P. falciparum, or 8 days p.i. for P. cynomolgi. For the in vitro sporozoite invasion experiments, P. falciparum sporozoites were preincubated with 1, 10, and 100 μM M1 for 1 h at room temperature before hepatocyte infections. Three hours later, after sporozoite penetration into hepatocytes, cultures were washed and then further incubated with or without the presence of the drug during 6 days. DMSO was used as a negative control.
# (§3) The number, size, and shape of the parasites were determined using a CellInsight high-content screening platform equipped with Studio HCS software (ThermoFisher Scientific). […] Host cell and parasite nuclei were labeled with DAPI (4′,6-diamidino-2-phenylindole). […] The custom script used for counting and measuring parasites first required identification of the objects based on a fluorescence intensity threshold. The object identity was then further validated based on size and morphological (shape) criteria. The presence of DAPI-associated fluorescence in the selected objects allowed their final selection and the rejection of false positives. […] The parasitic size reduction was calculated on the average object area using the total surface area of each selected object (μm^2).
# Plasmodium berghei = system: Plasmodium berghei; parameters: method as in PMID 25791675; settings: 2.5 mg/kg twice a day for 3 days; untreated group 9%; cited from earlier work
# [2] = system: P. falciparum strain NF54 gametocytes; test: In vitro gametocyte induction and development assays; type: cell-based, Plasmodium falciparum
# Experimental: To produce gametocytes, P. falciparum strain NF54 was cultured in vitro as described by Trager and Jensen ([46]) with minor modifications. Briefly, parasites were maintained in human type O-positive red blood cells (RBC) at 5% hematocrit (HCT) in RPMI 1640 medium supplemented with 10% heat-inactivated human serum, 10 mM hypoxanthine, 20 μg/ml gentamicin, The cultures were maintained at 37°C in a standard gas mixture of 5% O2, 5% CO2, 90% N2. Synchronous production of gametocytes was achieved as previously described ([47]). Briefly, asexual parasite cultures were synchronized by purifying schizonts with MACS cell separation columns (Miltenyi Biotec) and using them to reinvade erythrocytes. When parasitemia reached 10 to 15% rings, culture medium was supplemented with 50 mM N-acetylglucosamine (NAG; Sigma-Aldrich) for 5 days in order to clear residual asexual parasites and obtain a virtually pure gametocyte culture.
# To assess the effect of gamhepathiopine on the induction of gametocytes, M1 (10 μM) was added at the same moment with NAG. For gametocyte development, gamhepathiopine was added 2 days after the addition of NAG. Medium replacement was performed every day. All cultures were prepared in parallel with controls corresponding to cultures that were treated with 0.1% DMSO. The percentages of each stage of gametocytes in cultures were assessed by microscopy of Giemsa-stained thin blood smears.
# Figure S2. Protocol of in vitro gametocytocidal activity assays (NAG = N-acetylglucosamine). Gametocytes stages: I, II, III, IV and V. In blue: M1 effect on gametocyte induction: M1 (10 µM) added at D0 on asexual stage before induction with NAG (control= NAG+ DMSO). In green: M1 effect on gametocyte development: M1 (10 µM) added at D3 after induction (Control= DMSO). In red: M1 effect on exflagellation of mature male gametocytes on D10 (Control DMSO)
# [3] = system: P. yoelii liver-stage parasites in murine primary hepatocytes; test: In vitro liver-stage development, P. yoelii in murine primary hepatocytes; type: cell-based, Plasmodium yoelii
# Description: P. yoelii 230-GFP-Luc sporozoites are mutant parasites expressing a green fluorescent protein (GFP)-luciferase cassette generated by the gene out marker out (GOMO) strategy ([39]).
# as §1, §2, §3
# [4] = system: P. falciparum F32-ART5 and F32-TEM; test: Recrudescence assay F32-ART5 versus F32-TEM; type: cell-based, Plasmodium falciparum; settings: 48 h drug exposure; M1 2.5 and 10 μM; artemisinin 18 μM
# Experimental: The Plasmodium falciparum artemisinin-resistant strain F32-ART5 and its twin artemisinin-sensitive line F32-TEM ([30], [31]) were cultivated at 37°C with 5% CO2 in human red blood cells (EFS [French Blood Bank]) diluted to 2% hematocrit in RPMI 1640 medium supplemented with 5% human serum (EFS) as previously reported ([47]).
# A recrudescence assay was performed to evaluate the ability of the F32-ART5 parasite line to survive drug exposure in comparison to that of the F32-TEM parasite line ([30], [31]) in order to evaluate the risk of cross-resistance between artemisinin and M1. D-Sorbitol-synchronized ring-stage parasites at 3% parasitemia (2% hematocrit) were exposed to the drug for 48 h. After drug exposure, parasite cultures were washed with RPMI 1640 medium and replaced in normal drug-free culture conditions. The time to parasite recrudescence was determined as the time required to reach initial parasitemia. […] Each experiment, performed in parallel for F32-ART5 and F32-TEM cultivated under the same conditions to generate paired results, was carried out at least three times independently and data statistically analyzed.
# A statistical analysis (log-rank test) was carried out on data from the recrudescence assay and the QSA using a Kaplan-Meier survival analysis considering censored data. The final event was defined as the time necessary for cultures to reach initial parasitemia. […]
structure (smiles),measurement,setting,value
"Cc1ccc(-c2cc3nc(NC(C)(C)C)[nH]c(=O)c3s2)cc1 [Metabolite M1, 2-(tert-Butylamino)-6-(p-tolyl)thieno[3,2-d]pyrimidin-4(3H)-one]",concentration from which liver-stage development was fully inhibited,[1]; P. cynomolgi in simian hepatocytes,14 µM
same,EC50,"[1]; Plasmodium cynomolgi, Hepatocyte, P. cynomolgi in simian primary hepatocytes (SH), mean ± SEM of triplicate experiments, read-out: EC50 against liver-stage parasites",1500 ± 300 nM
same,activity on P. cynomolgi hypnozoites,[1]; all tested concentrations (0.1 to 50 μM),not active
same,SI (selectivity index),"[1]; hepatocyte CC50/EC50, P. cynomolgi (SH)",>40
same,Size reduction at 10 μM (%),"[1]; parasite (schizont) size, 10 μM, P. cynomolgi (SH)",80%
same,parasitemia at day 4,Plasmodium berghei,4.9%
same,stage III gametocytes mean value,"[2]; 10 μM added after induction, day 6 postinduction, control 1.29",0.48
same,stage V gametocytes mean value,"[2]; 10 μM added after induction, day 10 postinduction, control 0.70",0.26
same,reduction of the conversion rate of asexual parasites into gametocytes,"[2]; 10 μM added at D0 with NAG, renewed every day",87.8%
same,EC50,"[3]; Plasmodium yoelii, Hepatocyte, P. yoelii in murine primary hepatocytes (MH), mean ± SEM of triplicate experiments, read-out: EC50 against liver-stage parasites",450 ± 100 nM
same,SI (selectivity index),"[3]; hepatocyte CC50/EC50, P. yoelii (MH)",>133
same,Size reduction at 10 μM (%),"[3]; parasite (schizont) size, 10 μM, P. yoelii (MH)",100%
same,recrudescence of F32-ART5 versus F32-TEM (cross-resistance with artemisinin),[4],no cross-resistance with artemisinin

# Reference: article PMC8557901 (Microbiology Spectrum, 2021)
